{"source": "patent US20210063414A1", "about": "“METHODS FOR PREVENTING AND/OR TREATING BONE LOSS CONDITIONS BY MODULATING IRISIN” (Dana-Farber Cancer Institute, Inc., priority 2018, published 2021)", "key": {"MLO-Y4 cells": {"test_system": "MLO-Y4 cells", "assay": "Integrin-like signaling (pFAK, pZyxin, pAKT, pCREB) in MLO-Y4 cells, immunoblot", "format": "cell-based", "conditions": "for effect of integrin inhibitor on irisin-induced signaling (phosphorylation of FAK, Zyxin, CREB): MLO-Y4, inhibitor pre-treatment 10 minutes before irisin", "experimental": "Integrin heterodimer binds to its ligand. The interaction results in phosphorylation of FAK and Zyxin, followed by phosphorylation of AKT (at T308) and CREB. PM is plasma membrane. FIG. 2C and FIG. 2D show the immunoblots. MLO-Y4 cells were seeded and incubated until 60% cell density. The cells were incubated with serum free medium (FreeStyle™ 293 medium) for 4 hours and were treated for indicated time with 10 nM norepinephrine or irisin (FIG. 2C) or indicated concentrations of irisin for 10 minutes (FIG. 2D). Cells were lysed to detect the indicated protein level using immunoblot analysis.\n(§1) Certain materials and methods were used to generate the results described herein. For example, the data shown in FIG. 1A resulted from MLO-Y4 (an osteocyte-like cell line) cells treated with the indicated concentration of irisin and hydrogen peroxide for 4 hours. Cells were stained with Hoechst 33342 (ThermoFisher Scientific, catalog number H3570) and Eth-D1 (ThermoFisher Scientific, catalog number E1169) and analyzed to determine the percentage of cell death using ImageJ. The data shown in FIG. 2D resulted from MLO-Y4 incubated in serum free medium (FreeStyle™ 293 expression medium, ThermoFisher Scientific, catalog number 12338018) for 4 hours followed by treatment of indicated concentrations of irisin for 10 minutes. Cells were lysed to detect the indicated protein level using immunoblot analysis (Cell Signaling Technology, catalog numbers 3283S, 3285S, 8467S, 3553S, 9198S, and 9104S; Abcam, catalog number ab49900-100ul). The data shown in FIG. 3 resulted from 3T3-F442A cells incubated in serum free medium for 4 hours followed by treatment of indicated concentrations of irisin for 10 minutes. Cells were lysed by RIPA buffer to detect the indicated protein level using immunoblot analysis. The data shown in FIG. 4 were generated from 100 nM flag-tagged irisin (Enzo life sciences, catalog number ADI-908-307-3010) incubated with 5 nM of the indicated 6 his-tag integrins (R & D Systems Inc., catalog numbers 7064-AB-025, 5668-A4-050, 5438-A9-050, 6357-AB-050, and 6579-AV-025) in the presence of RGDS peptide (R & D Systems Inc., catalog number 3498/10) or its control peptide (Enzo Life Sciences, catalog Number BML-P701-0005) followed by immunoprecipitation using 6 his-tag beads (ThermoFisher Scientific, catalog number R901-01). Co-precipitated irisin was analyzed by immunoblot analysis against flag tag (Sigma Aldrich, catalog number A8592). The data shown in FIGS. 5A and 5B were generated from MLO-Y4 cells treated and analyzed as in the experiments used to generate the data shown in FIG. 2D, except that pre-treatment of 100 nM RGDS (FIG. 5A) or echistatin (R & D Systems Inc., catalog number 3202/100U) (FIG. 5B) for 10 minutes was performed before irisin treatment. The data shown in FIGS. 6A and 6B were generated from MLO-Y4 cells incubated in serum free medium for 3 hours followed by treatment of indicated time of 10 nM irisin for 16 hours. RNAs were extracted from the cells and the sclerostin mRNA level was analyzed by qPCR (FIG. 6A) or treated and analyzed as in (FIG. 6A), except that pre-treatment of 10 μM RGDS, RGDyK (Selleck, catalog number S7844), or echistatin was performed for 10 minutes before irisin treatment. The data shown in FIGS. 7A and 7B were generated from 8 week-old mice injected with the indicated dose of irisin for 6 days. Tibias were collected and treated with collagenase to obtain mRNA from the osteocyte-enriched bones. Sclerostin mRNA level was analyzed by qPCR (FIG. 7A). Serum was collected to analyze the sclerostin protein level using ELISA kit (R&D Systems Inc., catalog number MSST00) (FIG. 7B). The data shown in FIG. 8 were generated from 8 week-old mice injected with the indicated dose of irisin for 6 days. Epididymal fats were collected, RNAs were extracted from the tissues, and mRNA levels of the indicated genes were analyzed by qPCR. […]"}, "[1]": {"test_system": "sclerostin mRNA in MLO-Y4 cells", "assay": "Sclerostin mRNA in MLO-Y4 cells, qRT-PCR", "format": "cell-based, mouse", "conditions": "MLO-Y4, inhibitor pre-treatment 10 minutes, irisin 16 hours", "experimental": "Cells were stained with Hoechst 33342 and Eth-D1, and analyzed to determine the percentage of cell death. *: p<0.05, ***: p<0.001 vs 0.3 mM H2O2 treated condition. […] MLO-Y4 cells were seeded and incubated until 60% cell density. The cells were incubated with Freestyle293 medium for 4 hours and were treated with indicated concentrations of irisin for 16 hours. Sclerostin mRNA level was analyzed by qRT-PCR. Cyclophilin was used as a control house-keeping gene.\nMLO-Y4 cells were incubated in serum free medium for 3 hours followed by treatment of indicated concentrations of irisin for indicated time (FIG. 6A), or followed by treatment of 0 or 10 nM irisin in the presence of indicated integrin inhibitors or their control peptide for 16 hours (FIG. 6B). Sclerostin mRNA level was analyzed by qPCR.\nas §1, with “The data shown in FIGS. 7A and 7B were generated from 8 week-old mice injected with the indicated dose of irisin for 6 days. Tibias were collected and treated with collagenase to obtain mRNA from the osteocyte-enriched bones.” left out, “7A).” for “7A). Serum was collected to analyze the sclerostin protein level using ELISA kit (R&D Systems Inc., catalog number MSST00) (FIG. 7B). The data shown in FIG. 8 were generated from 8 week-old mice injected with the indicated dose of irisin for 6 days. Epididymal fats were collected, RNAs were extracted from the tissues, and mRNA levels of the indicated genes were analyzed by qPCR.”"}, "sclerostin": {"test_system": "sclerostin", "assay": "Irisin injection in mice: sclerostin mRNA in osteocyte-enriched bones and plasma sclerostin protein (ELISA)", "format": "in vivo", "conditions": "co-injection of 1 mg/kg inhibitor with irisin", "experimental": "8 weeks old mice were injected daily with indicated dose of irisin for 6 days. […] were collected and treated with collagenase to yield osteocyte-enriched bones. Sclerostin mRNA level from osteocyte-enriched tibia was analyzed by qPCR (FIG. 7A). Cyclophilin was used as a house-keeping gene. Plasma was collected to analyze the circulating sclerostin protein level by ELISA assay (FIG. 7B). Data are represented as mean±SEM. For FIG. 7A and FIG. 7B, n=5 animals/group. * indicates p<0.05, and *** indicates p<0.001.\nCertain materials and methods were used to generate the results described herein. For example, the data shown in FIG. 1A resulted from MLO-Y4 (an osteocyte-like cell line) cells treated with the indicated concentration of irisin and hydrogen peroxide for 4 hours. Cells were stained with Hoechst 33342 (ThermoFisher Scientific, catalog number H3570) and Eth-D1 (ThermoFisher Scientific, catalog number E1169) and analyzed to determine the percentage of cell death using ImageJ. […] Co-precipitated irisin was analyzed by immunoblot analysis against flag tag (Sigma Aldrich, catalog number A8592). The data shown in FIGS. 5A and 5B were generated from MLO-Y4 cells treated and analyzed as in the experiments used to generate the data shown in FIG. 2D, except that pre-treatment of 100 nM RGDS (FIG. 5A) or echistatin (R & D Systems Inc., catalog number 3202/100U) (FIG. 5B) for 10 minutes was performed before irisin treatment. […] RNAs were extracted from the cells and the sclerostin mRNA level was analyzed by qPCR (FIG. 6A) or treated and analyzed as in (FIG. 6A), except that pre-treatment of 10 μM RGDS, RGDyK (Selleck, catalog number S7844), or echistatin was performed for 10 minutes before irisin treatment. […] Sclerostin mRNA level was analyzed by qPCR (FIG. 7A). […] Epididymal fats were collected, RNAs were extracted from the tissues, and mRNA levels of the indicated genes were analyzed by qPCR. […]"}}, "note": "Entries after “also recorded” stand apart in the source; their conditions may differ. Counter-ions that a name gives are not always drawn.", "data": [{"compound": "NC[C@H](O)c1ccc(O)c(O)c1", "note": "[norepinephrine, L-(−)-Norephinephrine (+)-bitartrate salt monohyrdate]", "values": [{"measurement": "phosphorylation of CREB (positive control)", "setting": "MLO-Y4 cells; MLO-Y4, 10 nM", "result": "also did this"}]}, {"compound": "echistatin: natural integrin inhibitor isolated from viper venom, affects primarily integrin αV complexes (QCESGPCCRNCKFLKEGTICKRARGDDMDDYCNGKTCDCPRNPHKGPAT)", "values": [{"measurement": "effect of integrin inhibitor on irisin-induced signaling (phosphorylation of FAK, Zyxin, CREB)", "setting": "MLO-Y4 cells", "result": "most irisin signaling in osteocytes was inhibited"}, {"measurement": "effect of integrin inhibitor on irisin-induced signaling (phosphorylation of FAK, Zyxin, CREB)", "setting": "MLO-Y4 cells; listed as Echistatin", "result": "effectively prevented irisin signaling"}, {"measurement": "effect of integrin inhibitor on irisin-induced sclerostin mRNA", "setting": "[1]", "result": "sensitive; also recorded: prevented sclerostin induction"}]}, {"compound": "CNc1cccc(CCOc2ccc3c(c2)CN(CC(F)(F)F)C(=O)[C@H](CC(=O)O)C3)n1", "note": "[SB273005, reference compound]", "values": [{"measurement": "effect of integrin inhibitor on irisin-induced signaling (phosphorylation of FAK, Zyxin, CREB)", "setting": "MLO-Y4 cells", "result": "block irisin-induced signaling"}, {"measurement": "effect on irisin-induced gene expression of sclerostin in osteocyte-enriched bones", "setting": "sclerostin", "result": "significantly prevented"}]}]}
